Results on 32 compounds are retold here after patent US10669283B2, “Compound and pharmacologically acceptable salt thereof” (MEIJI SEIKA PHARMA CO., LTD., priority 2016, dated 2020).

Molecules are shown by their SMILES. Some results are limits rather than exact numbers.

The first assay concerns PDE4. Nature of the assay: PDE4 inhibition, scintillation proximity assay (SPA).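 As to PDE4 Inhibitory Activity (concentration for the inhibition rate of 50%): A below 100 nM B 100 to below 1000 nM C 1000 nM or more.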 The conditions noted are these: scintillation proximity assay (SPA); evaluated as classes A, B, C; read-out: PDE4 Inhibitory Activity (concentration for the inhibition rate of 50%). Format: biochemical. A digest of the protocol: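 Compound pre-diluted 1:10 in 50 mM Tris-HCl pH 7.4, 8.3 mM MgCl2, 1.7 mM EGTA, 3 mg/mL BSA, then incubated with PDE4 and [2,8-3H]-cAMP for 120 min at room temperature. Product captured on ZnSO4-containing YSi-SPA beads for 15 min; radioactivity counted against no-enzyme blank and DMSO control.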
In the case of `COC1(COC(c2ccc(-c3nccs3)c3oc(N4CC5CC(C4)N5)nc23)C(F)(F)F)CC1` (centres unmarked) [Example 282, 2-(3,6-Diazabicyclo[3.1.1]heptan-3-yl)-7-(thiazol-2-yl)-4-(2,2,2-trifluoro-1-((1-methoxycyclopropyl)methoxy)ethyl)benzo[d]oxazole], the IC50 is < 100 nM.
The same measure, in the same setting: under `CC(=O)c1cc(-c2nccs2)c2oc(N3CC4CC(C3)N4)nc2c1` [Example 109, 1-(2-(3,6-Diazabicyclo[3.1.1]heptan-3-yl)-7-(thiazol-2-yl)benzo[d]oxazol-5-yl)ethan-1-one] stands < 100 nM; under `CC(O)(c1cc(-c2nccs2)c2oc(N3CC4CCC(C3)N4)nc2c1OC(F)(F)F)C(F)(F)F` (centres unmarked) [Example 217, 2-(2-(3,8-Diazabicyclo[3.2.1]octan-3-yl)-7-(thiazol-2-yl)-4-(trifluoromethoxy)benzo[d]oxazol-5-yl)-1,1,1-trifluoropropan-2-ol], < 100 nM; under `CC(O)c1cc(-c2nccs2)c2oc(N3CC4CCC(C3)N4)nc2c1OC(F)(F)F` (centres unmarked) [Example 202, 1-(2-(3,8-Diazabicyclo[3.2.1]octan-3-yl)-7-(thiazol-2-yl)-4-(trifluoromethoxy)benzo[d]oxazol-5-yl)ethan-1-ol], < 100 nM.
As for `CON=C(C)c1cc(-c2nccs2)c2oc(N3CC4CCC(C3)N4)nc2c1OC(F)(F)F` (mixture of isomers) [Example 218, (E)-1-(2-(3,8-diazabicyclo[3.2.1]octan-3-yl)-7-(thiazol-2-yl)-4-(trifluoromethoxy)benzo[d]oxazol-5-yl)ethan-1-one O-methyloxime and (Z)-1-(2-(3,8-diazabicyclo[3.2.1]octan-3-yl)-7-(thiazol-2-yl)-4-(trifluoromethoxy)benzo[d]oxazol-5-yl)ethan-1-one O-methyloxime], the IC50 was < 100 nM.
Same read-out and setting: the value for `O=C(c1ccc(-c2nccs2)c2oc(N3CC4CCC(C3)N4)nc12)N1CCCCC1` [Example 117, (2-(3,8-Diazabicyclo[3.2.1]octan-3-yl)-7-(thiazol-2-yl)benzo[d]oxazol-4-yl)(piperidin-1-yl)methanone] was < 100 nM; that for `FC(F)(F)c1ccc(-c2nccs2)c2oc(N3CC4CCC(C3)N4)nc12` [Example 31, 2-(3,8-Diazabicyclo[3.2.1]octan-3-yl)-7-(thiazol-2-yl)-4-(trifluoromethyl)benzo[d]oxazole] was < 100 nM.
With `CCOC(=O)c1cc(-c2nccs2)c2oc(N3CC4CCCC(C3)N4)nc2c1C(F)(F)F` [Example 164, Ethyl 2-(3,9-diazabicyclo[3.3.1]nonan-3-yl)-7-(thiazol-2-yl)-4-(trifluoromethyl)benzo[d]oxazole-5-carboxylate], the IC50 was < 100 nM.
Same read-out and setting: the value for `FC(F)(F)Oc1c(Cl)cc(-c2nccs2)c2oc(N3CC4COCC(C3)N4)nc12` [Example 4, 7-(5-Chloro-7-(thiazol-2-yl)-4-(trifluoromethoxy)benzo [d]oxazol-2-yl)-3-oxa-7,9-diazabicyclo[3.3.1]nonane] was < 100 nM.
Turning to `CC(C)(O)CC(F)(F)Oc1ccc(-c2nccs2)c2oc(N3CC4CC(C3)N4)nc12` [Example 295, 4-((2-(3,6-Diazabicyclo[3.1.1]heptan-3-yl)-7-(thiazol-2-yl)benzo[d]oxazol-4-yl)oxy)-4,4-difluoro-2-methylbutan-2-ol], the IC50 was < 100 nM.
For the compound `COC(C)(C)c1cc(-c2nccs2)c2oc(N3CC4CCC(C3)N4)nc2c1C(F)(F)F` [Example 171, 2-(3,8-Diazabicyclo[3.2.1]octan-3-yl)-5-(2-methoxypropan-2-yl)-7-(thiazol-2-yl)-4-(trifluoromethyl)benzo[d]oxazole], the IC50 was < 100 nM.
As for `COC(C)c1cc(-c2nccs2)c2oc(N3CC4CCC(C3)N4)nc2c1OC(F)(F)F` (centres unmarked) [Example 210, 2-(3,8-Diazabicyclo[3.2.1]octan-3-yl)-5-(1-methoxyethyl)-7-(thiazol-2-yl)-4-(trifluoromethoxy)benzo[d]oxazole], the IC50 is < 100 nM.
Take `CC(O)(c1cc(-c2nccs2)c2oc(N3CC4CCC(C3)N4)nc2c1)C(F)(F)F` (centres unmarked) [Example 159, 2-(2-(3,8-Diazabicyclo[3.2.1]octan-3-yl)-7-(thiazol-2-yl)benzo[d]oxazol-5-yl)-1,1,1-trifluoropropan-2-ol]: the IC50 was < 100 nM.
On to `OCCOC(c1ccc(-c2nccs2)c2oc(N3CC4CC(C3)N4)nc12)C(F)(F)F` (centres unmarked) [Example 227, 2-(1-(2-(3,6-Diazabicyclo[3.1.1]heptan-3-yl)-7-(thiazol-2-yl)benzo[d]oxazol-4-yl)-2,2,2-trifluoroethoxy)ethan-1-ol], for which the IC50 was < 100 nM.
As to `OC1(c2cc(-c3nccs3)c3oc(N4CC5CC(C4)N5)nc3c2OC(F)(F)F)CC1` [Example 269, 1-(2-(3,6-Diazabicyclo[3.1.1]heptan-3-yl)-7-(thiazol-2-yl)-4-(trifluoromethoxy)benzo[d]oxazol-5-yl)cyclopropan-1-ol], the IC50 is < 100 nM.
On to `c1csc(-c2ccc(OC3CCC3)c3nc(N4CC5CCC(C4)N5)oc23)n1` [Example 81, 2-(3,8-Diazabicyclo[3.2.1]octan-3-yl)-4-cyclobutoxy-7-(thiazol-2-yl)benzo[d]oxazole], for which the IC50 was < 100 nM.
Same read-out and setting: the value for `OCC(F)(F)Oc1ccc(-n2cccn2)c2oc(N3CC4CC(C3)N4)nc12` [Example 320, 2-((2-(3,6-Diazabicyclo[3.1.1]heptan-3-yl)-7-(1H-pyrazol-1-yl)benzo[d]oxazol-4-yl)oxy)-2,2-difluoroethan-1-ol] was < 100 nM; that for `FC(F)(F)c1c(Cl)cc(-c2ccccn2)c2oc(N3CC4CC(C3)N4)nc12` [Example 13, 2-(3,6-Diazabicyclo[3.1.1]heptan-3-yl)-5-chloro-7-(pyridin-2-yl)-4-(trifluoromethyl)benzo[d]oxazole] was < 100 nM.
With `OCc1ccc(-c2nccs2)c2oc(N3CC4CC(C3)N4)nc12` [Example 133, (2-(3,6-Diazabicyclo[3.1.1]heptan-3-yl)-7-(thiazol-2-yl)benzo[d]oxazol-4-yl)methanol], the IC50 was < 100 nM.
`COC(c1cc(-c2nccs2)c2oc(N3CC4CCC(C3)N4)nc2c1)C(F)F` (centres unmarked) [Example 105, 2-(3,8-Diazabicyclo[3.2.1]octan-3-yl)-5-(2,2-difluoro-1-methoxyethyl)-7-(thiazol-2-yl)benzo[d]oxazole]: the IC50 is < 100 nM.
As to `N#CC1CC(Oc2ccc(-c3nccs3)c3oc(N4CC5CC(C4)N5)nc23)C1` (centres unmarked) [Example 266, 3-((2-(3,6-Diazabicyclo[3.1.1]heptan-3-yl)-7-(thiazol-2-yl)benzo[d]oxazol-4-yl)oxy)cyclobutane-1-carbonitrile], the IC50 is < 100 nM.
With `FC(F)(F)COC(c1cc(-c2nccs2)c2oc(N3CC4CC(C3)N4)nc2c1)C(F)(F)F` (centres unmarked) [Example 151, 2-(3,6-Diazabicyclo[3.1.1]heptan-3-yl)-7-(thiazol-2-yl)-5-(2,2,2-trifluoro-1-(2,2,2-trifluoroethoxy)ethyl)benzo[d]oxazole], the IC50 is < 100 nM.
As for `CC(C)(O)c1cc(-c2nccs2)c2oc(N3CC4CCC(C3)N4)nc2c1C(F)(F)F` [Example 177, 2-(2-(3,8-Diazabicyclo[3.2.1]octan-3-yl)-7-(thiazol-2-yl)-4-(trifluoromethyl)benzo[d]oxazol-5-yl)propan-2-ol], the IC50 is < 100 nM.
On the same count and under the same terms, the value for `CCOC(=O)c1cc(-n2cccn2)c2oc(N3CC4CCCC(C3)N4)nc2c1` [Example 93, Ethyl 2-(3,9-diazabicyclo[3.3.1]nonan-3-yl)-7-(1H-pyrazol-1-yl)benzo[d]oxazole-5-carboxylate] was 100 to 1000 nM; that for `OC(O)(c1cc(-c2nccs2)c2oc(N3CC4CCCC(C3)N4)nc2c1)C(F)(F)F` [Example 156, 1-(2-(3,9-Diazabicyclo[3.3.1]nonan-3-yl)-7-(thiazol-2-yl)benzo[d]oxazol-5-yl)-2,2,2-trifluoroethane-1,1-diol] was < 100 nM; that for `COc1ccc(-c2nccs2)c2oc(N3CC4CC(C3)N4)nc12` [Example 76, 2-(3,6-Diazabicyclo[3.1.1]heptan-3-yl)-4-methoxy-7-(thiazol-2-yl)benzo[d]oxazole] was < 100 nM.
As to `CCOC(c1ccc(-c2nccs2)c2oc(N3CC4CCC(C3)N4)nc12)C(F)(F)F` (centres unmarked) [Example 220, 2-(3,8-Diazabicyclo[3.2.1]octan-3-yl)-4-(1-ethoxy-2,2,2-trifluoroethyl)-7-(thiazol-2-yl)benzo[d]oxazole], the IC50 was < 100 nM.
Still for that read-out and setting: the value for `FC(F)(F)Oc1cc(-c2nccs2)c2oc(N3CC4CC(C3)N4)nc2c1` [Example 56, 2-(3,6-Diazabicyclo[3.1.1]heptan-3-yl)-7-(thiazol-2-yl)-5-(trifluoromethoxy)benzo[d]oxazole] was < 100 nM.
Regarding `OC(c1cc(-c2nccs2)c2oc(N3CC4CCCC(C3)N4)nc2c1)C(F)(F)F` (centres unmarked) [Example 136, 1-(2-(3,9-Diazabicyclo[3.3.1]nonan-3-yl)-7-(thiazol-2-yl)benzo[d]oxazol-5-yl)-2,2,2-trifluoroethan-1-ol], the IC50 is < 100 nM.
As to `N#CCOC(c1cc(-c2nccs2)c2oc(N3CC4CC(C3)N4)nc2c1)C(F)(F)F` (centres unmarked) [Example 152, 2-(1-(2-(3,6-Diazabicyclo[3.1.1]heptan-3-yl)-7-(thiazol-2-yl)benzo[d]oxazol-5-yl)-2,2,2-trifluoroethoxy)acetonitrile], the IC50 was < 100 nM.
With `CCOC(=O)c1cc(-n2cccn2)c2oc(N3CC4COCC(C3)N4)nc2c1` [Example 92, Ethyl 2-(3-oxa-7,9-diazabicyclo[3.3.1]nonan-7-yl)-7-(1H-pyrazol-1-yl)benzo[d]oxazole-5-carboxylate], the IC50 was > 1000 nM.

Still in this assay, the particulars now being: scintillation proximity assay; class symbols; read-out: PDE4 Inhibitory Activity.
For the compound `CC(C)(O)c1cc(-c2nccs2)c2oc(N3CC4CCC(C3)N4O)nc2c1C(F)(F)F` [Example 381, 3-(5-(2-hydroxy-propan-2-yl)-7-(thiazol-2-yl)-4-(trifluoromethyl)benzo[d]oxazol-2-yl)-3,8-diaza-bicyclo[3.2.1] octan-8-ol], the IC50 was > 1000 nM.
